Like-named read-outs stand apart in the source and are kept apart here.

By EC50 is commonly meant the concentration at which the effect is half-maximal.

Experiment [1] has as its system PKC. As to conditions: cited from earlier work.
Experiment [2] has as its system PKC-ε. The experiment in a line: Mouse dosing study: brain PKC-ε downregulation. The class given is in vivo. As to conditions: mice, 25 μg/m^2 three consecutive weekly doses vs lower doses. The source says: (§1) The following metrics may be used to evaluate dosing regimens: induction of brain postsynaptic anchoring protein PSD-95, upregulation of BDNF levels in brain, upregulation of HGF levels in brain, minimal downregulation of PKC-c levels, and elevation of brain and plasma concentrations of bryostatin or other HGF activating compound. Groups of 2-3 mice may be formed and housed in an approved research animal facility. Water may be given ad libitum. A first study involves three groups of mice with animals in each group dosed weekly for 1, 2, 3, or 6 consecutive weeks. Each group has its own control group containing the same number of mice. For example, mice in the first, second and third groups may receive an intravenous (i.v.) injection of 10 μg/m^2, 15 μg/m^2, and 25 μg/m^2 dose of bryostatin or other HGF activating compound respectively. For each dose, mice in that group may receive a single injection of bryostatin or other HGF activating compound weekly for a predetermined number of consecutive weeks. Following dosing, mice are sacrificed and the blood and brain of each animal is collected for further analysis.
A similar observation can be made concerning the levels of the synaptogenesis marker PSD-95. […] Continued weekly dosing at 10 μg/m^2 for another three consecutive weeks (total of 6 consecutive weeks) may result in downregulation. […]

The test system of experiment [3] is PSD-95. The experiment in a line: Mouse dosing study: PSD-95 levels. The class given is in vivo. The conditions noted are these: mice, 25 μg/m^2 i.v. once per week, after three weeks.
Excerpt: as §1
A similar observation can be made concerning the levels of the synaptogenesis marker PSD-95. […] Continued weekly dosing at 10 μg/m^2 for another three consecutive weeks (total of 6 consecutive weeks) may result in downregulation.

The test system of experiment [4] is BDNF. The experiment in a line: Mouse dosing study: brain BDNF levels. It counts as in vivo. As to conditions: mice.
Excerpt: as §1
At a dose of 25 μg/m^2, the levels of brain BDNF may increase with each successive week of dosing, that is, brain BDNF levels may be greatest after three consecutive weeks of dosing. […]

Experiment [5] has as its target T1, PKC.
T1 construct: rows headed: Ki for PKC
The conditions noted are these: competition with [3H] phorbol dibutyrate; cited from earlier work.

The subject of experiment [6] is squamous cell carcinoma and melanoma. The conditions noted are these: used topically; cited from earlier work.
The test system of experiment [7] is NCI 60 cell line screen. As to conditions: cited from earlier work.
In experiment [8] the target is protein kinase C. As to conditions: (−)-enantiomer; read-out: potency EC50; cited from earlier work.

`CCCCCCCC(=O)O[C@H]1/C(=C/C(=O)OC)C[C@H]2C[C@H](CO)OC(=O)C[C@H](O)C[C@@H]3CCC[C@H](C[C@@H]4CCO[C@H](/C=C/C(C)(C)[C@]1(O)O2)O4)O3` [Analog 1]: the “affinity for PKC (in words)” value in experiment [1] was “highest affinity for PKC”. Further, the Ki in experiment [1] (read-out: PKC Affin) was 0.25 nM.

For the compound `CCC/C=C/C=C/C(=O)O[C@H]1/C(=C/C(=O)OC)C[C@H]2C[C@H]([C@@H](C)O)OC(=O)C[C@H](O)C[C@@H]3C[C@H](OC(C)=O)C(C)(C)[C@](O)(C[C@@H]4C/C(=C/C(=O)OC)C[C@H](/C=C/C(C)(C)[C@]1(O)O2)O4)O3` [Bryostatin-1], in experiment [2], the “PKC-ε downregulation in brain” value was “may not produce more PKC-c downregulation”. Also, the “amounts of PSD-95 in brain and blood samples” value in experiment [3] is recorded as “higher amounts of PSD-95”. In addition, the results for the “levels of brain BDNF” value in experiment [4] (15 μg/m^2 weekly for three consecutive weeks) and in experiment [4] (25 μg/m^2 weekly) were “some increase” and “maximum increase”, respectively.

Consider `CC1=C[C@]23C(=O)[C@@H](C=C(COC(=O)c4ccccc4)[C@@H](O)[C@]2(O)[C@H]1OC(=O)c1ccccc1)[C@H]1[C@@H](C[C@H]3C)C1(C)C` [Ingenol 3,20-dibenzoate], for which the Ki in experiment [5] is 240 nM.

Take `C/C=C(/C)C(=O)O[C@H]1C(C)=C[C@]23C(=O)[C@@H](C=C(CO)[C@@H](O)[C@]12O)[C@H]1[C@@H](C[C@H]3C)C1(C)C` [Ingenol-3-angelate]: the antitumor activity result in experiment [6] is listed as “exhibits antitumor activity”.

Turning to `CC1=CC[C@H](C)C(C)(C)[C@@H]1/C=C/C(C)=C/CC[C@@]1(CO)[C@H](CCCO)/C(=C(/C)C=O)CC[C@]1(C)O` [Iripallidal], the “GI50 (concentration required to inhibit growth by 50%)” value in experiment [7] is listed as “micromolar to nanomolar range”.

For the compound `CCCCCCCCc1ccc2c3c(c[nH]c13)C[C@@H](CO)NC(=O)[C@H](C(C)C)N2C` [Octylindolactam V], the EC50 in experiment [8] is 29 nM.

The values are drawn from patent publication US20220133687A1, “METHODS OF TREATING AND PREVENTING NEURODEGENERATIVE DISEASES WITH HGF ACTIVATING COMPOUNDS” (Synaptogenix, Inc., priority 2020, published 2022).
